Measured values published in US12150929B2, “Compositions and methods for the treatment of depression” (Janssen Pharmaceuticals, Inc., priority 2021, dated 2024).
Read-outs that look alike come from different tables or passages of the source.

Assays:
[1] = Weight change, Example 1; assay type: in vivo, human
Procedure: Treatment with aticaprant as described herein has several advantages over the treatments in the art. […] As used herein, the term “weight gain” refers to an increase in the weight of patient, relative to the weight of the patient before taking aticaprant or the weight of the patient that is assessed at the time of the initial administration of the aticaprant. In certain embodiments, the patient may actually see a decrease in overall weight, relative to the weight of the patient before taking aticaprant.
At the lead-in baseline timepoint, the mean weight for subjects in the placebo group was 76.17 kg compared to 78.66 in the aticaprant group. After 6 weeks in the double-blind treatment phase, the mean weight in the placebo group was 75.75 kg compared to 78.57 kg in the aticaprant group. […] This is unexpected because other adjunctive treatments for MDD result in a mean weight increase. See, Thase M, et al. J Clin Psych. 2015: 76(9), 1224-1231; Thase, J Clin Psych. 2015, 76(9): 1232-1240; El Khalili, Int J Neuropsychopharmacol. 2010, 13, 917-932; Marcus, J. Clin. Psychopharmacol. […] Nashville, Tenn, ACNP, 2008; Earley, American College of Neuropsychopharmacology, 2007, Annual Meeting Abstracts (Boca Raton, Fla, Dec. 9-13, 2007). Nashville, TN, ACNP, 2007). See, Table 29.

[2] = Maximum plasma concentration (Cmax) of aticaprant, Example 1; assay type: in vivo; conditions: human, oral, 10 mg, eITT, read-out: Cmax, Arithmetic Mean (SD)
Procedure: Aticaprant was supplied as 5-mg capsules. Placebo was supplied as matching capsules. All subjects took 2 capsules QD. The capsules were taken daily from Day 2 to Day 78 in fasting condition with some water (fasting for at least 4 hours before dosing). Medication was taken before breakfast. If the subject has forgotten to take the medication before breakfast, this was done before the next following meal, at the latest at dinner of the same day. If the subject remembered later than dinner, the dose of that day was omitted, and the subject took the dose before breakfast on the next day.
Cmax is defined as maximum plasma concentration of aticaprant. […] Here ‘N’ (number of subjects analyzed) includes the number of subjects evaluable for this endpoint. Here ‘n’ (number analyzed) included all subjects evaluable for specified time point categories.

For Cc1cc(C)cc(C2CCCN2Cc2ccc(Oc3ccc(C(N)=O)cc3F)cc2)c1 (centres unmarked) [aticaprant, 3-fluoro-4-4-2-(3,5-dimethylphenyl)pyrrolidin-1-yl-methylphenoxybenzamide], the “Mean weight, Lead-in Baseline, mean (SE)” value ([1]; Lead-in Baseline, n = 85) was 78.66 (1.65) kg, the “Mean weight, Screening, mean (SE)” value ([1]; Screening, n = 85) was 78.42 (1.65) kg and the “Mean weight, Withdrawal Baseline, mean (SE)” value ([1]; Withdrawal Baseline (after 6 weeks double-blind treatment), n = 85) was 78.57 (1.71) kg. The “Mean weight, Relative % Change” value ([1]; Withdrawal vs Lead-in, n = 85) was −0.11%, the mean weight ([1]; after 6 weeks in the double-blind treatment phase) was 78.57 kg and the “weight over the 6-week double blind treatment period” value ([1]; both groups) was “remained relatively stable”. The mean weight ([1]; lead-in baseline timepoint) was 78.66 kg, the “Mean weight, Absolute Change (Withdrawal − Lead-in)” value ([1]; n = 85) was -0.09 kg and the Cmax ([2]; Week 1 (n = 56)) was 32.7 ± 10.9 ng/mL. It also gave a Cmax ([2]; Week 3 (n = 56)) of 33.5 ± 11.1 ng/mL and a Cmax ([2]; Week 6 (n = 56)) of 34.3 ± 11.1 ng/mL.
